In PubChem BioAssay (NCI):
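Briefly, cells in 96-well plates were exposed to five compound concentrations for 48 h, and endpoints were estimated by linear interpolation. GI50: concentration for 50% inhibition of growth. TGI marks complete inhibition of growth.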

Experiments:
Experiment in all cases: NCI tumour cell line growth inhibition, 48 h
[1] = tested on: A549 NSCLC
[2] = tested on: OVCAR-3 ovarian
[3] = tested on: DMS 114 small cell lung
[4] = tested on: 786-0 renal
[5] = tested on: M14 melanoma
[6] = tested on: SK-MEL-2 melanoma
[7] = tested on: SNB-78 CNS
[8] = tested on: MOLT-4 leukemia
[9] = tested on: COLO 205 colon
[10] = tested on: KM12 colon

SMILES | TGI [1] [µM] | TGI [2] [µM] | TGI [3] [µM] | TGI [4] [µM] | TGI [5] [µM] | TGI [6] [µM] | TGI [7] [µM] | TGI [8] [µM] | TGI [9] [µM] | TGI [10] [µM] | GI50 [1] [µM] | GI50 [8] [µM] | GI50 [10] [µM] | GI50 [2] [µM] | GI50 [3] [µM] | GI50 [4] [µM] | GI50 [5] [µM] | GI50 [6] [µM] | GI50 [7] [µM] | GI50 [9] [µM]
O=C(CC1SC(=Nc2ccccc2Cl)NC1=O)Nc1ccc(Cl)cc1Cl (stereo not drawn) | > 100 | > 100 | > 100 | > 100 | > 100 | > 100 | > 100 | > 100 | > 100 | > 100 | – | – | – | – | – | – | – | – | – | –
CC1(c2ccccc2Cl)C(C#N)C(=O)NC(=O)C1C#N (stereo not drawn) | > 100 | 46.7 | > 100 | > 100 | > 100 | > 100 | > 100 | > 100 | > 100 | – | – | – | – | – | – | – | – | – | – | –
O=S(=O)(/C=C/C(=C/c1ccccc1)S(=O)(=O)c1ccccc1)c1ccccc1 | 4.65 | 3.13 | 3.32 | 3.15 | 2.57 | 3.54 | – | 5.21 | 4.31 | 5.42 | – | – | – | – | – | – | – | – | – | –
O=c1[nH]cc(F)c(=O)n1C1OC(CO)C(O)C1O (stereo not drawn) | > 100 | > 100 | > 100 | > 100 | > 100 | > 100 | > 100 | > 100 | > 100 | > 100 | – | – | – | – | – | – | – | – | – | –
COC1C(N)C(OC2C(Oc3cccc4c(O)c5c(=O)oc6ccc(C)c7c(=O)oc(c34)c5c67)OC(C)C(O)C2(C)O)OC(C)C1O (stereo not drawn) | 1.49 | 0.406 | 0.229 | 0.36 | 0.75 | 0.0378 | 0.302 | 1.96 | 0.383 | 0.366 | – | – | – | – | – | – | – | – | – | –
Cc1ccccc1NC(=O)C(=O)C(C#N)c1ccccc1C (stereo not drawn) | > 100 | > 100 | > 100 | > 100 | > 100 | > 100 | > 100 | > 100 | > 100 | > 100 | – | – | – | – | – | – | – | – | – | –
N#Cc1ccc(C=NC23CC4CC(CC(C4)C2)C3)cc1 | > 100 | > 100 | > 100 | > 100 | > 100 | > 100 | > 100 | > 100 | > 100 | > 100 | – | – | – | – | – | – | – | – | – | –
C[N+](C)(C)CC1CCCC1=O (stereo not drawn) | 35.7 | 6.87 | 8.31 | 5.32 | 2.61 | 12.2 | 9.86 | 4.4 | 2.99 | 20.6 | – | – | – | – | – | – | – | – | – | –
CCOC(=O)/C(C#N)=C(O)/C(=C\c1ccc(Br)cc1)NC(=O)c1ccccc1 | > 100 | > 100 | > 100 | > 100 | > 100 | – | > 100 | > 100 | > 100 | > 100 | – | – | – | – | – | – | – | – | – | –
CC(C)=CC(=O)N(C)C1C2CN3CCC(O2)C13 (stereo not drawn) | > 100 | > 100 | > 100 | > 100 | > 100 | > 100 | > 100 | > 100 | > 100 | > 100 | – | – | – | – | – | – | – | – | – | –
Cc1ccc(S(=O)(=O)N/N=C(/CC(=O)c2c(C)n([O-])c3ccccc3[n+]2=O)C(=O)Nc2ccccc2C)cc1 | > 100 | > 100 | > 100 | > 100 | > 100 | > 100 | > 100 | – | > 100 | > 100 | – | – | – | – | – | – | – | – | – | –
CCCCCCCCCCCCC(Br)C(=O)NCC(N)=O (stereo not drawn) | 34.7 | 32.1 | 15.2 | 20.9 | 24.6 | 26.4 | 32.2 | – | 39.2 | 28.8 | – | – | – | – | – | – | – | – | – | –
C=C1CCC2[C@@H](CCC3[C@]2(C)CCC[C@]3(C)C(=O)OC)C1CC=O (stereo partly drawn) | 42.5 | 27.7 | 34.7 | 33.1 | 30.6 | 38.2 | 34.1 | 29.8 | 35.5 | 36.6 | 21 | 11.2 | 18.7 | – | – | – | – | – | – | –
O=C(O)/C=C/c1nc2ccccc2c(=O)o1 | > 100 | > 100 | > 100 | > 100 | > 100 | > 100 | > 100 | > 100 | > 100 | > 100 | – | – | – | – | – | – | – | – | – | –
C=CNC(=O)NC(=O)CSc1nnc(-c2ccccc2NC(=O)C(F)(F)F)c(=O)[nH]1 | > 100 | > 100 | 43.1 | > 100 | > 100 | > 100 | > 100 | > 100 | > 100 | > 100 | – | – | – | – | – | – | – | – | – | –
C[CH2][Sn]([CH2]C)([O]C(=O)c1ccccc1OC)[O][Sn]([CH2]C)([CH2]C)[O]C(=O)c1ccccc1OC | > 100 | > 100 | > 100 | > 100 | > 100 | > 100 | > 100 | > 100 | > 100 | > 100 | > 100 | > 100 | > 100 | > 100 | 30 | > 100 | > 100 | 91.5 | 63.4 | > 100
O=C1Nc2ccccc2N=CC1NC(=O)C(c1ccccc1)c1ccccc1 (stereo not drawn) | > 100 | > 100 | > 100 | > 100 | > 100 | > 100 | > 100 | > 100 | > 100 | > 100 | – | – | – | – | – | – | – | – | – | –
Cc1cc(C)nc(NS(=O)(=O)c2ccc(Nc3c4ccccc4nc4c(C(=O)Nc5ccc(S(=O)(=O)N=C(N)N)cc5)cccc34)cc2)n1 | > 100 | > 100 | > 100 | > 100 | > 100 | > 100 | > 100 | > 100 | > 100 | > 100 | – | – | – | – | – | – | – | – | – | –
COc1ccc(-c2cc(C(=O)Nc3ccc(C)c(C)c3)nc(NC#N)n2)cc1 | > 100 | > 100 | > 100 | > 100 | > 100 | > 100 | > 100 | > 100 | > 100 | > 100 | – | – | – | – | – | – | – | – | – | –
COCOCC/C=C/C=O | > 100 | > 100 | > 100 | > 100 | > 100 | > 100 | > 100 | > 100 | > 100 | > 100 | – | – | – | – | – | – | – | – | – | –
N#CC(c1ccccn1)c1nc2ccccc2[nH]1 (stereo not drawn) | > 100 | > 100 | > 100 | > 100 | > 100 | > 100 | > 100 | > 100 | > 100 | – | – | – | – | – | – | – | – | – | – | –
Cc1nc(C(=O)O)c2ccccc2n1 | > 100 | > 100 | > 100 | > 100 | – | > 100 | > 100 | > 100 | > 100 | > 100 | – | – | – | – | – | – | – | – | – | –
O=S(=O)(c1cccc(N=C=S)c1)c1cccc(N=C=S)c1 | > 100 | 24 | 29.6 | 29.5 | 25.6 | 33.8 | 63.5 | 30.6 | 38.1 | 61.5 | – | – | – | – | – | – | – | – | – | –
N#CC(C#N)c1ccc(C(=O)N2CCC[C@H]2CO)cc1 | > 100 | > 100 | > 100 | > 100 | > 100 | > 100 | – | > 100 | > 100 | > 100 | – | – | – | – | – | – | – | – | – | –
COCCNC(=O)C1C(=O)C(=O)N(CCOC)C1=O (stereo not drawn) | > 100 | > 100 | > 100 | > 100 | > 100 | > 100 | > 100 | – | > 100 | – | – | – | – | – | – | – | – | – | – | –
Cc1ccc(C)c(N2C(=O)C(=O)C(c3nc4ccccc4s3)/C(=N/NC(=O)NN)C2=O)c1 (stereo not drawn) | > 100 | > 100 | > 100 | > 100 | > 100 | > 100 | > 100 | > 100 | > 100 | > 100 | – | – | – | – | – | – | – | – | – | –
